Test results from PMC7377239, “Cardiovascular Effects of Polychlorinated Biphenyls and Their Major Metabolites” (Environmental Health Perspectives, 2020).
Read-outs that look alike come from different tables or passages of the source.

Columns and labels:
HUVECs = assay: High-content imaging cytotoxicity in HUVECs, 24 h; format: cell-based, human; details: for minimal effective concentration / viability at 0.01 µM / activity at 0.01 µM / activity at 0.1 µM / viability at 1 µM / activity at 1 µM / viability at 10 µM / activity at 10 µM / viability at 100 µM / activity at 100 µM: Homo sapiens, HUVEC, 24 h; for viability at 0.01 µM / activity at 0.01 µM: concentration 0.01 µM; for viability at 1 µM / activity at 1 µM: concentration 1.00 µM; for viability at 10 µM / activity at 10 µM: concentration 10.00 µM; for viability at 100 µM / activity at 100 µM: concentration 100.00 µM
In short: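 HUVECs (passages 1–5) were plated at 750 cells/well without fibronectin, grown to a monolayer (3–5 d) and exposed to compounds for 24 h at 37°C, 5% CO2. Hoechst 33342, MitoTracker Orange and calcein AM staining was imaged at 10×; readouts were normalized to 0.5% DMSO vehicle and fit to a four-parameter logistic model.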

[1] = test system: iCell cardiomyocytes (human iPSC-derived cardiomyocytes); assay: High-content imaging of cytotoxicity and mitochondrial integrity in iPSC-CMs; format: cell-based
In short: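 Human iPSC-derived cardiomyocytes were seeded on gelatin-coated 384-well plates at 5,000 cells per well and maintained for 12 d. Test chemicals were added as 10μL of 5× solutions to final concentrations of 0.01 to 100μM. Cells were stained with Hoechst 33342 and MitoTracker™ Orange, fixed in formaldehyde, and imaged by confocal high-content microscopy at 10× magnification.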

[2] = HUVECs, 24 hr, 0.00 µM = 100.00, read-out: huvec.cyto.24hr
[3] = HUVECs, 24 hr, 0.00 µM = 100.00, read-out: huvec.mito.24hr
[4] = HUVECs, 24 hr, 0.00 µM = 100.00, read-out: huvec.mitoint.24hr
[5] = HUVECs, 24 hr, 0.00 µM = 100.00, read-out: huvec.nma.24hr
[6] = HUVECs, 24 hrs, 0.00 µM = 100.00, read-out: huvec.tc.24hrs
[7] = 100.00 µM, 90min, 0.00 µM = 100.00
[8] = Homo sapiens, Cardiomyocyte, 1.5 h, 90min, 0.00 µM = 100.00, read-out: cm.cam.90min
[9] = Homo sapiens, Cardiomyocyte, 1.5 h, 90min, 0.00 µM = 100.00, read-out: cm.mii.90min
[10] = Homo sapiens, Cardiomyocyte, 1.5 h, 90min, 0.00 µM = 100.00, read-out: cm.mito.90min
[11] = Homo sapiens, Cardiomyocyte, 1.5 h, 90min, 0.00 µM = 100.00, read-out: cm.tc.90min
[12] = Homo sapiens, Cardiomyocyte, 24 h, 24hrs, 0.00 µM = 100.00, read-out: cm.cam.24hrs
[13] = Homo sapiens, Cardiomyocyte, 24 h, 24hrs, 0.00 µM = 100.00, read-out: cm.mii.24hrs
[14] = Homo sapiens, Cardiomyocyte, 24 h, 24hrs, 0.00 µM = 100.00, read-out: cm.mito.24hrs
[15] = Homo sapiens, Cardiomyocyte, 24 h, 24hrs, 0.00 µM = 100.00, read-out: cm.tc.24hrs

## Clc1ccc(Cl)c(-c2c(Cl)ccc(Cl)c2Cl)c1Cl [(+)-PCB 136, 2,2′,3,3′,6,6′-hexachlorobiphenyl]
HUVECs; HUVECs, 24 hr, concentration 0.10 µM, 0.00 µM = 100.00
  huvec.mito.24hr: 96.64
HUVECs; mitoint, 24 hr, read-out: POD huvec.mitoint.24hr
  minimal effective concentration: 0.64 µM
HUVECs; nma, 24 hr, read-out: POD huvec.nma.24hr
  minimal effective concentration: 1.82 µM
HUVECs; [2]
  viability at 0.01 µM: 89.2%
  viability at 1 µM: 81.4%
  viability at 10 µM: 65.2%
  viability at 100 µM: 40%
HUVECs; [3]
  activity at 0.01 µM: 87.1%
  activity at 1 µM: 80.3%
  activity at 10 µM: 30.4%
  activity at 100 µM: 25.7%
HUVECs; [4]
  activity at 0.01 µM: 81.7%
  activity at 1 µM: 78.8%
  activity at 10 µM: 9.57%
  activity at 100 µM: 14.8%
HUVECs; [5]
  activity at 0.01 µM: 95.8%
  activity at 1 µM: 99.5%
  activity at 10 µM: 50.8%
  activity at 100 µM: 75.7%
HUVECs; HUVECs, 24 hr, concentration 0.10 µM, 0.00 µM = 100.00, read-out: huvec.mitoint.24hr
  activity at 0.1 µM: 80.9%
HUVECs; HUVECs, 24 hr, concentration 0.10 µM, 0.00 µM = 100.00, read-out: huvec.nma.24hr
  activity at 0.1 µM: 93.4%
HUVECs; HUVECs, 24 hr, MAX 100.00, read-out: huvec.mitoint.24hr POD
  minimal effective concentration: 0.64 µM
HUVECs; HUVECs, 24 hr, MAX 100.00, read-out: huvec.nma.24hr POD
  minimal effective concentration: 1.82 µM
HUVECs; [6]
  viability at 0.01 µM: 89.2%
  viability at 1 µM: 81.4%
  viability at 10 µM: 65.3%
  viability at 100 µM: 40.2%
[1]; 0.10 µM, 24hrs, 0.00 µM = 100.00
  cm.mii.24hrs: 104.89
[1]; 10.00 µM, 24hrs, 0.00 µM = 100.00
  cm.mito.24hrs: 66.95
[1]; [7]
  cm.mii.90min: 30.66
  cm.mito.90min: 0.83
[1]; 100.00 µM, 24hrs, 0.00 µM = 100.00
  cm.mii.24hrs: 35.96
[1]; [8]
  viability at 0.01 µM: 94%
  viability at 1 µM: 97.7%
[1]; [9]
  activity at 0.01 µM: 115%
  activity at 1 µM: 103%
[1]; [10]
  activity at 0.01 µM: 94.1%
  activity at 1 µM: 97.5%
[1]; [11]
  viability at 0.01 µM: 94.5%
  viability at 1 µM: 97.8%
[1]; Homo sapiens, Cardiomyocyte, 1.5 h, 0.10 µM, 90min, 0.00 µM = 100.00, read-out: cm.cam.90min
  viability at 0.1 µM: 100%
[1]; Homo sapiens, Cardiomyocyte, 1.5 h, 0.10 µM, 90min, 0.00 µM = 100.00, read-out: cm.mii.90min
  activity at 0.1 µM: 108%
[1]; Homo sapiens, Cardiomyocyte, 1.5 h, 0.10 µM, 90min, 0.00 µM = 100.00, read-out: cm.mito.90min
  activity at 0.1 µM: 100%
[1]; Homo sapiens, Cardiomyocyte, 1.5 h, 0.10 µM, 90min, 0.00 µM = 100.00, read-out: cm.tc.90min
  viability at 0.1 µM: 100%
[1]; Homo sapiens, Cardiomyocyte, 1.5 h, 10.00 µM, 90min, 0.00 µM = 100.00, read-out: cm.cam.90min
  viability at 10 µM: 101%
[1]; Homo sapiens, Cardiomyocyte, 1.5 h, 10.00 µM, 90min, 0.00 µM = 100.00, read-out: cm.mii.90min
  activity at 10 µM: 101%
[1]; Homo sapiens, Cardiomyocyte, 1.5 h, 10.00 µM, 90min, 0.00 µM = 100.00, read-out: cm.mito.90min
  activity at 10 µM: 102%
[1]; Homo sapiens, Cardiomyocyte, 1.5 h, 10.00 µM, 90min, 0.00 µM = 100.00, read-out: cm.tc.90min
  viability at 10 µM: 102%
[1]; [12]
  viability at 0.01 µM: 92.8%
  viability at 1 µM: 95.6%
[1]; [13]
  activity at 0.01 µM: 90.7%
  activity at 1 µM: 86.4%
[1]; [14]
  activity at 0.01 µM: 95.4%
  activity at 1 µM: 97%
[1]; [15]
  viability at 0.01 µM: 95.4%
  viability at 1 µM: 96.3%
[1]; Homo sapiens, Cardiomyocyte, 24 h, 0.10 µM, 24hrs, 0.00 µM = 100.00, read-out: cm.cam.24hrs
  viability at 0.1 µM: 96.6%
[1]; Homo sapiens, Cardiomyocyte, 24 h, 0.10 µM, 24hrs, 0.00 µM = 100.00, read-out: cm.mito.24hrs
  activity at 0.1 µM: 98.1%
[1]; Homo sapiens, Cardiomyocyte, 24 h, 0.10 µM, 24hrs, 0.00 µM = 100.00, read-out: cm.tc.24hrs
  viability at 0.1 µM: 96.6%
[1]; Homo sapiens, Cardiomyocyte, 24 h, 10.00 µM, 24hrs, 0.00 µM = 100.00, read-out: cm.mii.24hrs
  activity at 10 µM: 99.9%
[1]; Homo sapiens, Cardiomyocyte, 24 h, 100.00 µM, 24hrs, 0.00 µM = 100.00, read-out: cm.cam.24hrs
  viability at 100 µM: 1.96%
[1]; Homo sapiens, Cardiomyocyte, 24 h, 100.00 µM, 24hrs, 0.00 µM = 100.00, read-out: cm.mito.24hrs
  activity at 100 µM: 1.15%
[1]; Homo sapiens, Cardiomyocyte, 24 h, 100.00 µM, 24hrs, 0.00 µM = 100.00, read-out: cm.tc.24hrs
  viability at 100 µM: 2.72%
[1]; Homo sapiens, Cardiomyocyte, 24 h, cardiomyocytes (cm), mii, 24 hrs, read-out: POD cm.mii.24hrs
  minimal effective concentration: 50.8 µM
[1]; Homo sapiens, Cardiomyocyte, 24 h, read-out: cm.mii.24hrs POD
  minimal effective concentration: 50.8 µM
